Test results from ChEMBL document CHEMBL1909046, “DrugMatrix in vitro pharmacology data”.

Tests used:
[1] = molecular target: T1, Alpha-2C adrenergic receptor (Homo sapiens, UniProt P18825); assay: DRUGMATRIX: Adrenergic Alpha-2C radioligand binding (ligand: [3H] MK-912); assay type: cell membranes, Sf9, Membrane; conditions: sf9; as to IC50: call rule not given here
T1 sequence (P18825 whole entry): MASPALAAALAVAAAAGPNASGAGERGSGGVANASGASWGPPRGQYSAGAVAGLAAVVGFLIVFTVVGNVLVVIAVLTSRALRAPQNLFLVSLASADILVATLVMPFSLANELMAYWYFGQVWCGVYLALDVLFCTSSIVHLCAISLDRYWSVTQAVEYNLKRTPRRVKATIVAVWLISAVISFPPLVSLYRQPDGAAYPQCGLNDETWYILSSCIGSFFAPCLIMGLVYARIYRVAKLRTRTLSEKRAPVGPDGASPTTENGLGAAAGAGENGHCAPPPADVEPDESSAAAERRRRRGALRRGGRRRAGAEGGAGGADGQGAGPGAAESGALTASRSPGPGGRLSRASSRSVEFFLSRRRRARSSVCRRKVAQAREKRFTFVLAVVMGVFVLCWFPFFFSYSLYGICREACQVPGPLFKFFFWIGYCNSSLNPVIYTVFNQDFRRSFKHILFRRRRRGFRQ

[2] = molecular target: T2, C-X-C chemokine receptor type 1 (Homo sapiens, UniProt P25024); also: in other assays of this panel Not Active means under 50% inhibition at 10 µM
T2 sequence (P25024 whole entry): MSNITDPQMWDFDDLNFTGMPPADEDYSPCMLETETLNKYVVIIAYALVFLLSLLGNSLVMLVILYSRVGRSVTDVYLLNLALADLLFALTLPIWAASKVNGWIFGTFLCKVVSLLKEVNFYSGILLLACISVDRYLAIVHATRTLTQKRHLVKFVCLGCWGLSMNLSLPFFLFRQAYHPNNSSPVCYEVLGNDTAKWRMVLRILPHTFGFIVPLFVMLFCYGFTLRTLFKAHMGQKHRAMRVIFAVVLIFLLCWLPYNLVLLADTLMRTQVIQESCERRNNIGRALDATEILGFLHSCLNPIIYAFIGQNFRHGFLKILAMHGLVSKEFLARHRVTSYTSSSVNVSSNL

[3] = molecular target: Prostaglandin G/H synthase 1 (Homo sapiens, UniProt P23219); assay: biochemical; assay type: tissue-based, Platelet; conditions: platelet;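 also: inhibition of COX-1 enzyme activity, with arachidonic acid supplied as substrate; in other assays of this panel Not Active means under 50% inhibition at 10 µM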
D(3) dopamine receptor = D(3) dopamine receptor (Homo sapiens, UniProt P35462); assay: DRUGMATRIX: Dopamine D3 radioligand binding (ligand: [3H] Spiperone); assay type: cell membranes, CHO, Membrane; conditions: cho
[4] = molecular target: T3, Muscarinic acetylcholine receptor M4 (Homo sapiens, UniProt P08173); assay type: cell membranes, CHO-K1, Membrane; conditions: cho-k1; also: in other assays of this panel Not Active means under 50% inhibition at 10 µM
T3 sequence (P08173 whole entry): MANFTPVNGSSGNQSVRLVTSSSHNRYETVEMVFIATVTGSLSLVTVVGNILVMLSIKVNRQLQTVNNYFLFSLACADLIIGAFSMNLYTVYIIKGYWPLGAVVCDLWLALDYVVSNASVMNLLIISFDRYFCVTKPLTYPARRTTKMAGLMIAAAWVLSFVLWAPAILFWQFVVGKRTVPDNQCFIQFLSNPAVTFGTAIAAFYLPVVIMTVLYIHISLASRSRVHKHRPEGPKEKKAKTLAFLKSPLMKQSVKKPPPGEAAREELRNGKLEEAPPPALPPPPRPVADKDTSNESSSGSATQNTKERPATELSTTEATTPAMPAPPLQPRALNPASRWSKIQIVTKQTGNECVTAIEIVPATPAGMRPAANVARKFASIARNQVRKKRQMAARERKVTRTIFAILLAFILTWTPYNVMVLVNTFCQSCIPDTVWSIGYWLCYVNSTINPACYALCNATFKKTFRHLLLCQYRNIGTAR

Cytochrome P450 2A6 = molecular target: T4, Cytochrome P450 2A6 (Homo sapiens, UniProt P11509); conditions: bti-tn-5b1-4; also: in other assays of this panel Not Active means under 50% inhibition at 10 µM
T4 sequence (P11509 whole entry): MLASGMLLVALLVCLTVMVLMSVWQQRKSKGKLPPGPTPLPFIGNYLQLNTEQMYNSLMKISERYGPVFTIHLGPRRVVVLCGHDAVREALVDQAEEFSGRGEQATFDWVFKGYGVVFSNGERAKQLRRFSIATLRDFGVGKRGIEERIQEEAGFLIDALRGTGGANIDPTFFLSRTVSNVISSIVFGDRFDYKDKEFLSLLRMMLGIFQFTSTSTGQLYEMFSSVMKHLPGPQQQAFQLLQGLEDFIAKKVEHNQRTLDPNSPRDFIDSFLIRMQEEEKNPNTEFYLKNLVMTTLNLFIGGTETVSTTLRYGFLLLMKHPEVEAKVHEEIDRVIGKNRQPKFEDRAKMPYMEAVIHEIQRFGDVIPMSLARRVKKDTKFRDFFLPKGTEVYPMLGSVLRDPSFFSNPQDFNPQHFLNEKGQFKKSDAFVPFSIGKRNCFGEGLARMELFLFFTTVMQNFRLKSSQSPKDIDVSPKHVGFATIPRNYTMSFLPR

Chain of D(3) dopamine receptor (P35462 whole entry): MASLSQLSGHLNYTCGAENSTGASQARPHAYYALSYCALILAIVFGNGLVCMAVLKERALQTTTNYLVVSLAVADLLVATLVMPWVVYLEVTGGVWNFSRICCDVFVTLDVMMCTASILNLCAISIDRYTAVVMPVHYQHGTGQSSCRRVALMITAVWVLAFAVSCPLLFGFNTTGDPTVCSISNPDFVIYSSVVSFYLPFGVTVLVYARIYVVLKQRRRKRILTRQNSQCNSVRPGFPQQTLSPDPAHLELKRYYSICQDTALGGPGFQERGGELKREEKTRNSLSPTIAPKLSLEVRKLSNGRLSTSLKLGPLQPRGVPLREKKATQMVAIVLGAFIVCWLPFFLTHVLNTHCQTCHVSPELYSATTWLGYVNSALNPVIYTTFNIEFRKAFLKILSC
Chain of Prostaglandin G/H synthase 1 (P23219 whole entry): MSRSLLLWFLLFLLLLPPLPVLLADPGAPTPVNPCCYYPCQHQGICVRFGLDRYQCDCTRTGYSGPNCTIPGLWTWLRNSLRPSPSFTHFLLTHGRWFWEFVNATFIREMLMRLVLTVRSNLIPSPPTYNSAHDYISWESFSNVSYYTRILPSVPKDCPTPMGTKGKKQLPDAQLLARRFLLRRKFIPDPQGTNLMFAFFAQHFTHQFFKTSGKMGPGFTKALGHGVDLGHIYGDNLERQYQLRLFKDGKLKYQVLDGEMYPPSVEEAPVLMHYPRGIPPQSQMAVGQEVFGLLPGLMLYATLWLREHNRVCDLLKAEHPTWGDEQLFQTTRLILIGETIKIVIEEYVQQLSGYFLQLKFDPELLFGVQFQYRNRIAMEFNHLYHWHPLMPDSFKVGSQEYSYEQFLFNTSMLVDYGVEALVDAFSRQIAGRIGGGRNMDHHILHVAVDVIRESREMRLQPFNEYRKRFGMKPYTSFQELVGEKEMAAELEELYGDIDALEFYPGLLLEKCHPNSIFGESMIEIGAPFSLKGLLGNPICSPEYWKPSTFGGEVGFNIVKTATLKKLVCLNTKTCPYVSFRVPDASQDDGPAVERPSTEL

CADMIUM ACETATE
Not Active: IC50 [1] | Ki [1] | IC50 [2] | Ki [2] | IC50 [3] | Ki [3] | IC50 (D(3) dopamine receptor) | Ki (D(3) dopamine receptor) | IC50 [4] | Ki [4] | IC50 (Cytochrome P450 2A6) | Ki (Cytochrome P450 2A6)

LEAD (II) ACETATE
Not Active: IC50 [1] | Ki [1] | IC50 [2] | Ki [2] | IC50 [3] | Ki [3] | IC50 (D(3) dopamine receptor) | Ki (D(3) dopamine receptor) | IC50 [4] | Ki [4] | IC50 (Cytochrome P450 2A6) | Ki (Cytochrome P450 2A6)

LIPOPOLYSACCHARIDE E. COLI O55:B5
Not Active: IC50 [1] | Ki [1] | IC50 [2] | Ki [2] | IC50 [3] | Ki [3] | IC50 (D(3) dopamine receptor) | Ki (D(3) dopamine receptor) | IC50 [4] | Ki [4] | IC50 (Cytochrome P450 2A6) | Ki (Cytochrome P450 2A6)
